For orientation: IC50 means the concentration at which inhibition is half-maximal. Usually EC50 stands for the midpoint of the concentration-response curve.

Experiment [1] concerns the target T1, P. berghei apicoplast DNA polymerase (Pb-apPOL) (Plasmodium berghei, UniProt A0A509ALK1).
T1 sequence (A0A509ALK1 1182-1809): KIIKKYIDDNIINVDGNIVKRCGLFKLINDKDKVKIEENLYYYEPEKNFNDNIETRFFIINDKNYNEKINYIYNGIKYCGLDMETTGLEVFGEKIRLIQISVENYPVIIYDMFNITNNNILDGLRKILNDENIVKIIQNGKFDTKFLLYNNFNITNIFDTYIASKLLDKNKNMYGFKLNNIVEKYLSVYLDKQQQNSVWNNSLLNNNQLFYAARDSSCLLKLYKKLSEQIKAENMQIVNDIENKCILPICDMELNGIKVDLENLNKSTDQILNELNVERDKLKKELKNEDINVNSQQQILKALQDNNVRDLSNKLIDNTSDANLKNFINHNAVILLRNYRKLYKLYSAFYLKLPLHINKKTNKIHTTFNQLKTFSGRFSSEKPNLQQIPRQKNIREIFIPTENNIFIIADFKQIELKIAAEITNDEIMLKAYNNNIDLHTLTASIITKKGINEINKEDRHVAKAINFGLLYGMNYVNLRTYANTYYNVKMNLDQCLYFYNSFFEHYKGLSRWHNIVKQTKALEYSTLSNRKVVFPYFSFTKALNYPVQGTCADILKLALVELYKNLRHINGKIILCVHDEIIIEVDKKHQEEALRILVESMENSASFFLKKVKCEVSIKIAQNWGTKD
Description: In vitro DNA polymerase inhibition assay, Pb-apPOL. Type of experiment: biochemical. The following applies: Table 2. As for the experimental part: (§1) Codon-optimized, exonuclease-deficient Pf-apPOL was overexpressed in E. coli BL21 (DE3) and purified as described. The protein was dialysed against two, 1-liter changes of 20 mM Tris-HCl (pH 8.0), 400 mM NaCl, and 20% glycerol. Plasmodium bergei and Babesia bovis apPOLs (Pb-apPOL and Bb-apPOL, respectively) were codon-optimized, expressed, and purified as for Pf-apPOL[15]. Bacteriophage T4 DNA polymerase was purified as described. The DNA oligonucleotides used to make the high-throughput substrate were obtained from Integrated DNA Technologies. Deoxynucleotides were purchased from Strategene. All other materials came from Fisher Scientific.
The HT assay employs a molecular beacon, a stem-loop DNA template with a Cy3 dye and the Black Hole Quencher on the 3′ and 5′ ends of the DNA, respectively. Pf-apPOL concentration is based on a calculated absorptivity of ε280 = 56750 M^−1 cm^−1. Reactions were carried out at 25 °C, using Corning 3575 […] (well-volume, 20 µL). Assays testing for compound inhibition composed of reaction buffer (pH 7.9 in 50 mM potassium acetate, 20 mM Tris-acetate and 10 mM magnesium acetate), Pf-apPOL (20 nM), DNA substrate (20 nM), dNTPs (6 µM), and compound (10 µM in DMSO). The DNA and nucleotide substrates (dNTPs) were at concentrations of 20 nM and 6 µM, respectively, in the assay. Pf-apPOL was incubated in the reaction buffer with dNTPs and the compound of interest (10 µM, in the assay) at 25 °C for 10 min. The DNA substrate was then added and the reaction was allowed to proceed for 90 min at 25 °C.
In the above, Min is the average of fluorescence emission of the negative controls (substrate only), Max the average fluorescence emission from the positive controls (enzyme + substrate), and Test the emission from the assays in the presence of compounds (enzyme + compound + substrates). Dose-response confirmation assays were performed under similar conditions as the primary screen, but monitoring fluorescence at 10, 90, and 180 min. Tested concentrations of compounds were 2.5, 10, 20, 40, and 80 µM. The IC50 of each compound was determined using Equation (2): (2) […] Vmax/(1+ (I/IC50)^n)
We tested the ability of the 102 compounds to kill P. falciparum parasites cultured in human red blood cells. Due to the number of compounds, we used a single inhibitor concentration of 20 µM and performed experiments in triplicate. These single-dose assays identified 9 compounds that inhibited parasite growth by more than 50%. These compounds were then tested in a dose-response format against chloroquine resistant P. falciparum parasites (Dd2) and the resulting data were fit to a sigmoidal growth inhibition curve to determine EC50 values (Figure 5, Table 2). […] Inhibition of Pb-apPOL is a desired feature because it is likely that future in vivo studies will be performed in the mouse model for Malaria. […] The in vitro polymerase assays identified 5 compounds that were potent inhibitors of all three apicoplast polymerases and a single compound that inhibited Pf-apPOL and Bb-apPOL but not Pb-apPOL (Table 2). Finally, to determine if the compounds were killing the parasites solely via apicoplast disruption, the dose-response curves were also performed with 1 mM isopentylpyrophosphate (IPP) in the growth media (Table 2). […] At this time, it is unclear what the non-apicoplast target(s) may be. One intriguing possibility is that these compounds may be targeting both the apicoplast and the mitochondrial DNA polymerases. […]

Experiment [2] deals with P. falciparum apicoplast DNA polymerase (Pf-apPOL) (Plasmodium falciparum, UniProt Q8ILY1). Description: Fluorescence-based high-throughput DNA polymerase assay (molecular beacon), primary screen and dose-response. Type of experiment: biochemical. In a few lines:
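Single-point screening used 10 µM compound with 20 nM polymerase, 20 nM hairpin substrate and 6 µM dNTPs for 90 min at 25 °C. Confirmatory titrations (2.5–80 µM) followed fluorescence at three times, and IC50 was derived from a fit including a cooperativity term n.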

Experiment [3] deals with chloroquine resistant P. falciparum parasites (strain Dd2). Nature of the experiment: Parasite growth inhibition assay in human red blood cells (flow cytometry, acridine orange). It is filed as cell-based. The following applies: Plasmodium falciparum, Erythrocyte. As for the experimental part: The chloroquine resistant P. falciparum parasites (strain Dd2) were cultured in de-identified, IRB-exempt human red blood cells (RBCs) obtained from the American Red Cross and parasite cultures were maintained as described. Parasitaemia (percentage of total RBCs infected) was measured by flow cytometry on an Attune NxT (ThermoFisher) by nucleic-acid staining of cultured RBCs with phosphate-buffered saline (PBS) containing 0.8 µg ml^−1 acridine orange. We began by determining percent growth inhibition at single compound dose (20 µM) for the 102 non-toxic compounds. […] The experiments were initiated with a starting parasitaemia of ∼1% and parasitaemia was measured 72 and 96 h post compound addition. Growth was normalised to parasite cultures with carrier only (DMSO).
(§2) We tested the ability of the 102 compounds to kill P. falciparum parasites cultured in human red blood cells. Due to the number of compounds, we used a single inhibitor concentration of 20 µM and performed experiments in triplicate. […] These compounds were then tested in a dose-response format against chloroquine resistant P. falciparum parasites (Dd2) and the resulting data were fit to a sigmoidal growth inhibition curve to determine EC50 values (Figure 5, Table 2). […] Finally, to determine if the compounds were killing the parasites solely via apicoplast disruption, the dose-response curves were also performed with 1 mM isopentylpyrophosphate (IPP) in the growth media (Table 2). […] Very little is known regarding mitochondrial DNA replication in P. falciparum; however, signal sequence identification algorithms have predicted that the other bacterial A-family DNA polymerase residing in P. falciparum is targeted to the mitochondria (PF3D7_0625300)[29]. […] We are currently in the process of cloning and expressing this putative mitochondrial DNA polymerase to determine the effect of these compounds on its activity.

In experiment [4] the target is Babesia bovis apicoplast DNA polymerase (Bb-apPOL). Nature of the experiment: In vitro DNA polymerase inhibition assay, Bb-apPOL. It is filed as biochemical. The following applies: Table 2. As for the experimental part:
as §1, §2

Where [5] appears, read: read-out: IC50 Pf-apPOL, Table 2.
[6] abbreviates: supplemental file 2, sheet IC50 nontoxic compounds, Pf-apPOL.
Setting [7] is: Dd2 parasites in human RBCs, dose-response, no IPP, read-out: EC50.
Setting [8] is: Dd2 parasites, 1 mM isopentylpyrophosphate (IPP) in the growth media, read-out: EC50 + IPP.

Each structure is given as a SMILES string. Like-named read-outs stand apart in the source and are kept apart here.

Chain of P. falciparum apicoplast DNA polymerase (Pf-apPOL) (Q8ILY1 entry or part of it): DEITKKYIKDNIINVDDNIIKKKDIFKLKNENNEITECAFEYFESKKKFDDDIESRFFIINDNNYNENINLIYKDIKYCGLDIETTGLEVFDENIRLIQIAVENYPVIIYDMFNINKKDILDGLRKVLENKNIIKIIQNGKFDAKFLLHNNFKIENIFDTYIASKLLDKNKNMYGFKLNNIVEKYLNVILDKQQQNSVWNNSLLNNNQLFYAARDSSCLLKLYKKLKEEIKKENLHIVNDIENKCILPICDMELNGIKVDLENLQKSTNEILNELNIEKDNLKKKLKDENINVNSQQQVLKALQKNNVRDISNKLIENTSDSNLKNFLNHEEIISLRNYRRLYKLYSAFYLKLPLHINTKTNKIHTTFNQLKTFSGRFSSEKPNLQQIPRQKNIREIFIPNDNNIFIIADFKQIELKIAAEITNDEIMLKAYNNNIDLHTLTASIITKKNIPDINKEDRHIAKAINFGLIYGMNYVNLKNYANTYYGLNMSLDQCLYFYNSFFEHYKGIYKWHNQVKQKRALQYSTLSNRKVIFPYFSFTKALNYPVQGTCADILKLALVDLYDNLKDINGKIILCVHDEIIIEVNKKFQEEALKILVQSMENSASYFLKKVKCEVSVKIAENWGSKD

In the case of `O=[N+]([O-])c1ccc(/C=C/c2ccc3ccccc3n2)o1` [Molecule 21], the IC50 in experiment [1] is 9.7 ± 1.6 µM; in experiment [2] (setting [5]), 8 ± 1 µM; in experiment [2] (setting [6]), 8.41 µM.

Take `O=[N+]([O-])/C=C/c1ccc(-c2ccc(Br)cc2)o1` [Molecule 31]: the EC50 in experiment [3] (setting [7]) came out at 8.9 ± 0.5 µM; in experiment [3] (setting [8]) it was 8.7 ± 0.6 µM. Moreover, the concentration for half-maximal inhibition (IC50) was 15 ± 5 µM in experiment [4], 15 ± 1 µM in experiment [2] (setting [5]) and 15.8 µM in experiment [2] (setting [6]).

For `O=C1Nc2ccc(I)cc2C1=Cc1cc(Br)c(O)c(Br)c1` [Molecule 27], the EC50 in experiment [3] (setting [7]) is 10 ± 1 µM; in experiment [3] (setting [8]), 9 ± 1 µM. For the same compound, the IC50 in experiment [2] (setting [5]) amounted to 15 ± 1 µM; in experiment [2] (setting [6]) it was 15.6 µM.

In the case of `CC(C)(C)c1cc(C(=O)C(C#N)=NNc2cccc(Cl)c2)no1` [Molecule 98], the EC50 turned out to be 16 ± 1 µM in experiment [3] (setting [7]) and 11 ± 1 µM in experiment [3] (setting [8]). The values for the IC50 in experiment [2] (setting [5]) and in experiment [2] (setting [6]) were 8 ± 2 µM and 8.45 µM, respectively.

In the case of `Cn1nc(-c2nnc(-c3ccccc3F)o2)c2c1CCN(C(=O)c1ccccc1Cl)C2` [Molecule 34], the EC50 in experiment [3] (setting [7]) was determined as 11.3 ± 0.9 µM; in experiment [3] (setting [8]) it was 10 ± 0.7 µM. The half-maximal inhibitory concentration (IC50) in experiment [2] (setting [5]) was 7.2 ± 0.9 µM; in experiment [2] (setting [6]), 7.21 µM.

These data come from article PMC9090415, “Discovery of small molecule inhibitors of Plasmodium falciparum apicoplast DNA polymerase” (Journal of Enzyme Inhibition and Medicinal Chemistry, 2022).
